What was measured:
Details in all cases: incubation time: 72 h
CAL-85-1 [1] = test: normalised response (% of control), CellTiter-Glo; higher = more viable cells (100 = DMSO, 0 = benzethonium chloride kill control)
How it was run: (§1)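 Breast cancer cell lines in 20 µl suspension were added to 384-well plates containing compound at 5 concentrations, spaced in 10-fold steps across a 10,000-fold range chosen for each compound, and incubated for 72 h. CellTox Green fluorescence was read at 485/520 nm, followed by CellTiter-Glo luminescence after 10 min at room temperature. Signals on each plate were normalised so that 0.1 % DMSO equals 100 and a positive kill control equals 0. Every value in the table is the normalised signal at one concentration of the series.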

HCC1599 [2] = test: as above
How it was run: as §1

HCC1937 [3] = test: as above
How it was run: as §1

CAL-51 [4] = test: as above
How it was run: as §1

MFM-223 [5] = test: as above
How it was run: as §1

MCF-10A [6] = test: as above
How it was run: as §1

BT-549 [7] = test: as above
How it was run: as §1

HDQ-P1 [8] = test: as above
How it was run: as §1

MDA-MB-231 [9] = test: as above
How it was run: as §1

CAL-120 [10] = test: as above
How it was run: as §1

Hs578T [11] = test: as above
How it was run: as §1

MDA-MB-468 [12] = test: as above
How it was run: as §1

MDA-MB-453 [13] = test: as above
How it was run: as §1

DU-4475 [14] = test: as above
How it was run: as §1

CAL-148 [15] = test: as above
How it was run: as §1

HCC1143 [16] = test: as above
How it was run: as §1

SK-BR-3 = test: as above
How it was run: as §1

BT-474 [17] = test: as above
How it was run: as §1

MDA-MB-436 [18] = test: as above
How it was run: as §1

CAL-85-1 [19] = test: normalised response (% of control), CellTox Green; higher = less cell death (100 = DMSO, 0 = benzethonium chloride kill control)
How it was run: as §1

HCC1599 [20] = test: as above
How it was run: as §1

HCC1937 [21] = test: as above
How it was run: as §1

CAL-51 [22] = test: as above
How it was run: as §1

MFM-223 [23] = test: as above
How it was run: as §1

MCF-10A [24] = test: as above
How it was run: as §1

BT-549 [25] = test: as above
How it was run: as §1

HDQ-P1 [26] = test: as above
How it was run: as §1

MDA-MB-231 [27] = test: as above
How it was run: as §1

CAL-120 [28] = test: as above
How it was run: as §1

Hs578T [29] = test: as above
How it was run: as §1

MDA-MB-468 [30] = test: as above
How it was run: as §1

MDA-MB-453 [31] = test: as above
How it was run: as §1

DU-4475 [32] = test: as above
How it was run: as §1

CAL-148 [33] = test: as above
How it was run: as §1

HCC1143 [34] = test: as above
How it was run: as §1

BT-474 [35] = test: as above
How it was run: as §1

MDA-MB-436 [36] = test: as above
How it was run: as §1

COc1ccc(-c2ccc3c(N4CCOC[C@@H]4C)nc(N4CCOC[C@@H]4C)nc3n2)cc1CO [AZD8055] (10000 nM)
normalised response (CAL-85-1 [1]): 27.6% | normalised response (HCC1599 [2]): 77.3% | normalised response (HCC1937 [3]): 38.3% | normalised response (CAL-51 [4]): 15.9% | normalised response (MFM-223 [5]): 26.4% | normalised response (MCF-10A [6]): 21.4% | normalised response (BT-549 [7]): 19.9% | normalised response (HDQ-P1 [8]): 29% | normalised response (MDA-MB-231 [9]): 33.5% | normalised response (CAL-120 [10]): 18.8% | normalised response (Hs578T [11]): 22.4% | normalised response (MDA-MB-468 [12]): 21% | normalised response (MDA-MB-453 [13]): 27.2% | normalised response (DU-4475 [14]): 15.3% | normalised response (CAL-148 [15]): 14.6% | normalised response (HCC1143 [16]): 25.3% | normalised response (SK-BR-3): 18.2% | normalised response (BT-474 [17]): 42.5% | normalised response (MDA-MB-436 [18]): 46.4% | normalised response (CAL-85-1 [19]): 88.1% | normalised response (HCC1599 [20]): 86.4% | normalised response (HCC1937 [21]): 97.3% | normalised response (CAL-51 [22]): 76.6% | normalised response (MFM-223 [23]): 83.7% | normalised response (MCF-10A [24]): 76.3% | normalised response (BT-549 [25]): 111% | normalised response (HDQ-P1 [26]): 99.7% | normalised response (MDA-MB-231 [27]): 97.3% | normalised response (CAL-120 [28]): 102% | normalised response (Hs578T [29]): 94.8% | normalised response (MDA-MB-468 [30]): 27.8% | normalised response (MDA-MB-453 [31]): 92.3% | normalised response (DU-4475 [32]): 82.6% | normalised response (CAL-148 [33]): 56.6% | normalised response (HCC1143 [34]): -36.9% | normalised response (BT-474 [35]): 48% | normalised response (MDA-MB-436 [36]): 68.7%

C/C(=C\c1csc(C)n1)[C@@H]1C[C@@H]2O[C@]2(C)CCC[C@H](C)[C@H](O)[C@@H](C)C(=O)C(C)(C)[C@@H](O)CC(=O)O1 [Patupilone] (1000 nM)
normalised response (CAL-85-1 [1]): 20.7% | normalised response (HCC1599 [2]): 25.3% | normalised response (HCC1937 [3]): 74% | normalised response (CAL-51 [4]): 25.4% | normalised response (MFM-223 [5]): 47.4% | normalised response (MCF-10A [6]): 41.5% | normalised response (BT-549 [7]): 18.5% | normalised response (HDQ-P1 [8]): 62.4% | normalised response (MDA-MB-231 [9]): 29.8% | normalised response (CAL-120 [10]): 58.4% | normalised response (Hs578T [11]): 12.2% | normalised response (MDA-MB-468 [12]): 36% | normalised response (MDA-MB-453 [13]): 53.2% | normalised response (DU-4475 [14]): 49.2% | normalised response (CAL-148 [15]): 54.1% | normalised response (HCC1143 [16]): 31.3% | normalised response (SK-BR-3): 11.7% | normalised response (BT-474 [17]): 36.8% | normalised response (MDA-MB-436 [18]): 31.5% | normalised response (CAL-85-1 [19]): -11.4% | normalised response (HCC1599 [20]): 92.5% | normalised response (HCC1937 [21]): 103% | normalised response (CAL-51 [22]): 41.2% | normalised response (MFM-223 [23]): 55.5% | normalised response (MCF-10A [24]): 20.1% | normalised response (BT-549 [25]): 74.4% | normalised response (HDQ-P1 [26]): 93.3% | normalised response (MDA-MB-231 [27]): -10.5% | normalised response (CAL-120 [28]): 87.5% | normalised response (Hs578T [29]): -68.9% | normalised response (MDA-MB-468 [30]): 97.4% | normalised response (MDA-MB-453 [31]): 96.4% | normalised response (DU-4475 [32]): 100% | normalised response (CAL-148 [33]): 52.6% | normalised response (HCC1143 [34]): 53.7% | normalised response (BT-474 [35]): 52.6% | normalised response (MDA-MB-436 [36]): 78.4%

CC[C@]1(O)C[C@H]2CN(CCc3c([nH]c4ccccc34)[C@@](C(=O)OC)(c3cc4c(cc3OC)N(C=O)[C@H]3[C@@](O)(C(=O)OC)[C@H](OC(C)=O)[C@]5(CC)C=CCN6CC[C@]43[C@@H]65)C2)C1 [Vincristine] (1000 nM)
normalised response (CAL-85-1 [1]): 50.1% | normalised response (HCC1599 [2]): 12.2% | normalised response (HCC1937 [3]): 73.2% | normalised response (CAL-51 [4]): 23.8% | normalised response (MFM-223 [5]): 44.2% | normalised response (MCF-10A [6]): 68.1% | normalised response (BT-549 [7]): 38% | normalised response (HDQ-P1 [8]): 71.5% | normalised response (MDA-MB-231 [9]): 48.4% | normalised response (CAL-120 [10]): 62.2% | normalised response (Hs578T [11]): 25% | normalised response (MDA-MB-468 [12]): 38.2% | normalised response (MDA-MB-453 [13]): 63.8% | normalised response (DU-4475 [14]): 42.5% | normalised response (CAL-148 [15]): 59.3% | normalised response (HCC1143 [16]): 55.3% | normalised response (SK-BR-3): 18.5% | normalised response (BT-474 [17]): 53.5% | normalised response (MDA-MB-436 [18]): 28.8% | normalised response (CAL-85-1 [19]): 54.1% | normalised response (HCC1599 [20]): 69.7% | normalised response (HCC1937 [21]): 102% | normalised response (CAL-51 [22]): 29.8% | normalised response (MFM-223 [23]): 65.1% | normalised response (MCF-10A [24]): 56.6% | normalised response (BT-549 [25]): 73.4% | normalised response (HDQ-P1 [26]): 99.3% | normalised response (MDA-MB-231 [27]): 45.3% | normalised response (CAL-120 [28]): 85% | normalised response (Hs578T [29]): 33.5% | normalised response (MDA-MB-468 [30]): -25.1% | normalised response (MDA-MB-453 [31]): 82.2% | normalised response (DU-4475 [32]): 95.8% | normalised response (CAL-148 [33]): 86.8% | normalised response (HCC1143 [34]): 75.8% | normalised response (BT-474 [35]): 78.7% | normalised response (MDA-MB-436 [36]): 72.1%

Cn1cncc1[C@@](N)(c1ccc(Cl)cc1)c1ccc2c(c1)c(-c1cccc(Cl)c1)cc(=O)n2C [Tipifarnib] (10000 nM)
normalised response (CAL-85-1 [1]): 61.5% | normalised response (HCC1599 [2]): 40.6% | normalised response (HCC1937 [3]): 53.1% | normalised response (CAL-51 [4]): 59.1% | normalised response (MFM-223 [5]): 39.6% | normalised response (MCF-10A [6]): 74.3% | normalised response (BT-549 [7]): 40.3% | normalised response (HDQ-P1 [8]): 60.2% | normalised response (MDA-MB-231 [9]): 73.8% | normalised response (CAL-120 [10]): 63.4% | normalised response (Hs578T [11]): 49.6% | normalised response (MDA-MB-468 [12]): 31.8% | normalised response (MDA-MB-453 [13]): 63.7% | normalised response (DU-4475 [14]): 46.9% | normalised response (CAL-148 [15]): 54.7% | normalised response (HCC1143 [16]): 49.6% | normalised response (SK-BR-3): 33.5% | normalised response (BT-474 [17]): 53.9% | normalised response (MDA-MB-436 [18]): 34.7% | normalised response (CAL-85-1 [19]): 75.2% | normalised response (HCC1599 [20]): 98% | normalised response (HCC1937 [21]): 72.2% | normalised response (CAL-51 [22]): 84% | normalised response (MFM-223 [23]): 75.5% | normalised response (MCF-10A [24]): 92.6% | normalised response (BT-549 [25]): 90.4% | normalised response (HDQ-P1 [26]): 69.9% | normalised response (MDA-MB-231 [27]): 57.5% | normalised response (CAL-120 [28]): 81% | normalised response (Hs578T [29]): 101% | normalised response (MDA-MB-468 [30]): 88.8% | normalised response (MDA-MB-453 [31]): 92.4% | normalised response (DU-4475 [32]): 85.6% | normalised response (CAL-148 [33]): 89.5% | normalised response (HCC1143 [34]): 98.7% | normalised response (BT-474 [35]): 75.5% | normalised response (MDA-MB-436 [36]): 81.1%
